Experimental data as given in the NIST ThermoML archive (doi:10.1021/je050021e).
Numbers after ± are expanded uncertainties.

Experiment: xn = mol fraction of the nth substance listed
Conditions: Liquid

COCCOCCOCCOC [2,5,8,11-tetraoxadodecane] + O
Conditions | mass density, 101.3 kPa [kg/m3] | viscosity, 101 kPa [mPa·s]
303.15 K, x1 = 0.0198 | 1004.97 ± 0.1 | 1.38 ± 0.03
303.15 K, x1 = 0.05 | 1015.35 ± 0.13 | 2.38 ± 0.05
303.15 K, x1 = 0.07 | 1019.1 ± 0.14 | 2.99 ± 0.07
303.15 K, x1 = 0.1 | 1020.68 ± 0.17 | 3.6 ± 0.08
303.15 K, x1 = 0.2 | 1012.62 ± 0.26 | 3.76 ± 0.08
303.15 K, x1 = 0.3 | 1002.98 ± 0.35 | 3.13 ± 0.07
303.15 K, x1 = 0.4 | 995.48 ± 0.44 | 2.67 ± 0.06
303.15 K, x1 = 0.5 | 990.09 ± 0.53 | 2.38 ± 0.05
303.15 K, x1 = 0.6 | 985.94 ± 0.62 | 2.14 ± 0.05
303.15 K, x1 = 0.7 | 982.66 ± 0.72 | 1.99 ± 0.05
303.15 K, x1 = 0.8 | 979.8 ± 0.81 | 1.9 ± 0.05
303.15 K, x1 = 0.9 | 977.61 ± 0.91 | 1.82 ± 0.04
303.15 K, x1 = 1 | 975.86 ± 1 | 1.77 ± 0.04
313.15 K, x1 = 0.0198 | 1000.31 ± 0.1 | 1.09 ± 0.03
313.15 K, x1 = 0.05 | 1008.77 ± 0.12 | 1.79 ± 0.04
313.15 K, x1 = 0.07 | 1011.54 ± 0.14 | 2.19 ± 0.05
313.15 K, x1 = 0.1 | 1012.19 ± 0.17 | 2.6 ± 0.06
313.15 K, x1 = 0.2 | 1003.21 ± 0.25 | 2.8 ± 0.06
313.15 K, x1 = 0.3 | 993.51 ± 0.34 | 2.39 ± 0.05
313.15 K, x1 = 0.4 | 985.98 ± 0.43 | 2.09 ± 0.05
313.15 K, x1 = 0.5 | 980.57 ± 0.53 | 1.94 ± 0.04
313.15 K, x1 = 0.6 | 976.37 ± 0.62 | 1.73 ± 0.04
313.15 K, x1 = 0.7 | 973.09 ± 0.71 | 1.65 ± 0.04
313.15 K, x1 = 0.8 | 970.25 ± 0.8 | 1.58 ± 0.04
313.15 K, x1 = 0.9 | 968.06 ± 0.9 | 1.51 ± 0.04
313.15 K, x1 = 1 | 966.36 ± 0.99 | 1.48 ± 0.04
323.15 K, x1 = 0.0198 | 995.02 ± 0.1 | 0.876 ± 0.021
323.15 K, x1 = 0.05 | 1001.79 ± 0.12 | 1.39 ± 0.03
323.15 K, x1 = 0.07 | 1003.67 ± 0.14 | 1.67 ± 0.04
323.15 K, x1 = 0.1 | 1003.47 ± 0.16 | 1.96 ± 0.04
323.15 K, x1 = 0.2 | 993.71 ± 0.25 | 2.1 ± 0.05
323.15 K, x1 = 0.3 | 983.93 ± 0.34 | 1.88 ± 0.04
323.15 K, x1 = 0.4 | 976.37 ± 0.43 | 1.69 ± 0.04
323.15 K, x1 = 0.5 | 970.93 ± 0.52 | 1.6 ± 0.04
323.15 K, x1 = 0.6 | 966.77 ± 0.61 | 1.44 ± 0.03
323.15 K, x1 = 0.7 | 963.5 ± 0.71 | 1.37 ± 0.03
323.15 K, x1 = 0.8 | 960.68 ± 0.8 | 1.32 ± 0.03
323.15 K, x1 = 0.9 | 958.5 ± 0.89 | 1.27 ± 0.03
323.15 K, x1 = 1 | 956.85 ± 0.98 | 1.26 ± 0.03
333.15 K, x1 = 0.0198 | 989.18 ± 0.1 | 0.728 ± 0.018
333.15 K, x1 = 0.05 | 994.39 ± 0.12 | –
333.15 K, x1 = 0.07 | 995.46 ± 0.14 | 1.33 ± 0.03
333.15 K, x1 = 0.1 | 994.52 ± 0.16 | 1.53 ± 0.04
333.15 K, x1 = 0.2 | 984.05 ± 0.25 | 1.66 ± 0.038
333.15 K, x1 = 0.3 | 974.23 ± 0.34 | 1.52 ± 0.04
333.15 K, x1 = 0.4 | 966.69 ± 0.43 | 1.4 ± 0.03
333.15 K, x1 = 0.5 | 961.2 ± 0.52 | 1.3 ± 0.03
333.15 K, x1 = 0.6 | 957.06 ± 0.61 | 1.21 ± 0.03
333.15 K, x1 = 0.7 | 953.78 ± 0.7 | 1.16 ± 0.03
333.15 K, x1 = 0.8 | 950.98 ± 0.79 | 1.13 ± 0.03
333.15 K, x1 = 0.9 | 948.9 ± 0.88 | 1.1 ± 0.03
333.15 K, x1 = 1 | 947.32 ± 0.97 | 1.08 ± 0.03
343.15 K, x1 = 0.0198 | 982.78 ± 0.11 | 0.617 ± 0.016
343.15 K, x1 = 0.05 | 986.6 ± 0.12 | 0.922 ± 0.022
343.15 K, x1 = 0.07 | 986.96 ± 0.14 | 1.08 ± 0.03
343.15 K, x1 = 0.1 | 985.33 ± 0.16 | 1.24 ± 0.03
343.15 K, x1 = 0.2 | 974.27 ± 0.25 | 1.34 ± 0.03
343.15 K, x1 = 0.3 | 964.41 ± 0.34 | 1.26 ± 0.03
343.15 K, x1 = 0.4 | 956.86 ± 0.43 | 1.17 ± 0.03
343.15 K, x1 = 0.5 | 951.36 ± 0.52 | 1.1 ± 0.03
343.15 K, x1 = 0.6 | 947.25 ± 0.6 | 1.04 ± 0.03
343.15 K, x1 = 0.7 | 943.99 ± 0.69 | 0.998 ± 0.025
343.15 K, x1 = 0.8 | 941.33 ± 0.78 | 0.976 ± 0.025
343.15 K, x1 = 0.9 | 939.3 ± 0.87 | 0.952 ± 0.024
343.15 K, x1 = 1 | 937.72 ± 0.96 | 0.945 ± 0.025

CC(=O)N1CCOCC1 [4-acetylmorpholine] + O
101 kPa
Conditions | mass density [kg/m3] | viscosity [mPa·s]
298.15 K, x1 = 0.05 | 1034.97 ± 0.56 | 1.79 ± 0.05
298.15 K, x1 = 0.07 | 1046.13 ± 0.57 | 2.22 ± 0.07
298.15 K, x1 = 0.1 | 1060.06 ± 0.57 | 3.22 ± 0.09
298.15 K, x1 = 0.2 | 1087.71 ± 0.59 | 5.96 ± 0.16
298.15 K, x1 = 0.3 | 1100.16 ± 0.6 | 8.7 ± 0.22
298.15 K, x1 = 0.4 | 1106 ± 0.6 | 10.1 ± 0.3
298.15 K, x1 = 0.5 | 1108.55 ± 0.61 | 10.4 ± 0.3
298.15 K, x1 = 0.6 | 1109.77 ± 0.61 | 10.5 ± 0.3
298.15 K, x1 = 0.7 | 1110.29 ± 0.61 | 9.61 ± 0.24
298.15 K, x1 = 0.8 | 1110.46 ± 0.61 | 9.18 ± 0.24
298.15 K, x1 = 0.9 | 1110.4 ± 0.61 | 8.79 ± 0.23
298.15 K, x1 = 1 | 1110.33 ± 0.61 | 8.48 ± 0.23
303.15 K, x1 = 0.05 | 1032.47 ± 0.56 | 1.56 ± 0.05
303.15 K, x1 = 0.07 | 1043.32 ± 0.56 | 1.96 ± 0.06
303.15 K, x1 = 0.1 | 1056.85 ± 0.57 | 2.75 ± 0.08
303.15 K, x1 = 0.2 | 1083.85 ± 0.59 | 4.94 ± 0.14
303.15 K, x1 = 0.3 | 1095.95 ± 0.6 | 7.01 ± 0.18
303.15 K, x1 = 0.4 | 1101.68 ± 0.6 | 8.02 ± 0.2
303.15 K, x1 = 0.5 | 1104.19 ± 0.6 | 8.29 ± 0.21
303.15 K, x1 = 0.6 | 1105.39 ± 0.6 | 8.48 ± 0.22
303.15 K, x1 = 0.7 | 1105.93 ± 0.6 | 7.89 ± 0.21
303.15 K, x1 = 0.8 | 1106.12 ± 0.6 | 7.56 ± 0.2
303.15 K, x1 = 0.9 | 1106.08 ± 0.6 | 7.3 ± 0.2
303.15 K, x1 = 1 | 1106 ± 0.6 | 7.1 ± 0.2
313.15 K, x1 = 0.05 | 1027.12 ± 0.56 | 1.23 ± 0.04
313.15 K, x1 = 0.07 | 1037.36 ± 0.56 | 1.52 ± 0.05
313.15 K, x1 = 0.1 | 1050.17 ± 0.57 | 2.1 ± 0.06
313.15 K, x1 = 0.2 | 1075.73 ± 0.58 | 3.55 ± 0.1
313.15 K, x1 = 0.3 | 1087.43 ± 0.59 | 4.8 ± 0.14
313.15 K, x1 = 0.4 | 1092.98 ± 0.6 | 5.47 ± 0.15
313.15 K, x1 = 0.5 | 1095.41 ± 0.6 | 5.68 ± 0.16
313.15 K, x1 = 0.6 | 1096.65 ± 0.6 | 5.77 ± 0.16
313.15 K, x1 = 0.7 | 1097.23 ± 0.6 | 5.56 ± 0.16
313.15 K, x1 = 0.8 | 1097.4 ± 0.6 | 5.42 ± 0.15
313.15 K, x1 = 0.9 | 1097.41 ± 0.6 | 5.28 ± 0.15
313.15 K, x1 = 1 | 1097.35 ± 0.6 | 5.18 ± 0.15
323.15 K, x1 = 0.05 | 1021.29 ± 0.55 | 0.998 ± 0.032
323.15 K, x1 = 0.07 | 1031.03 ± 0.56 | 1.21 ± 0.04
323.15 K, x1 = 0.1 | 1043.19 ± 0.56 | 1.65 ± 0.05
323.15 K, x1 = 0.2 | 1067.57 ± 0.58 | 2.68 ± 0.08
323.15 K, x1 = 0.3 | 1078.79 ± 0.59 | 3.51 ± 0.1
323.15 K, x1 = 0.4 | 1084.2 ± 0.59 | 3.96 ± 0.11
323.15 K, x1 = 0.5 | 1086.6 ± 0.59 | 4.13 ± 0.12
323.15 K, x1 = 0.6 | 1087.84 ± 0.59 | 4.4 ± 0.13
323.15 K, x1 = 0.7 | 1088.43 ± 0.59 | 4.13 ± 0.12
323.15 K, x1 = 0.8 | 1088.71 ± 0.59 | 4.06 ± 0.12
323.15 K, x1 = 0.9 | 1088.78 ± 0.59 | 4 ± 0.12
323.15 K, x1 = 1 | 1088.74 ± 0.59 | 3.96 ± 0.12
333.15 K, x1 = 0.05 | 1015.01 ± 0.55 | 0.857 ± 0.028
333.15 K, x1 = 0.07 | 1024.27 ± 0.55 | 1.04 ± 0.03
333.15 K, x1 = 0.1 | 1035.89 ± 0.56 | 1.24 ± 0.04
333.15 K, x1 = 0.2 | 1059.2 ± 0.57 | 2.05 ± 0.06
333.15 K, x1 = 0.3 | 1069.99 ± 0.58 | 2.66 ± 0.08
333.15 K, x1 = 0.4 | 1075.32 ± 0.58 | 3 ± 0.09
333.15 K, x1 = 0.5 | 1077.66 ± 0.58 | 3.13 ± 0.09
333.15 K, x1 = 0.6 | 1078.93 ± 0.59 | 3.41 ± 0.1
333.15 K, x1 = 0.7 | 1079.63 ± 0.59 | 3.18 ± 0.09
333.15 K, x1 = 0.8 | 1079.97 ± 0.59 | 3.17 ± 0.09
333.15 K, x1 = 0.9 | 1080.1 ± 0.59 | 3.14 ± 0.09
333.15 K, x1 = 1 | 1080.14 ± 0.59 | 3.12 ± 0.1
343.15 K, x1 = 0.05 | 1008.29 ± 0.54 | 0.743 ± 0.025
343.15 K, x1 = 0.07 | 1017.17 ± 0.55 | 0.861 ± 0.028
343.15 K, x1 = 0.1 | 1028.29 ± 0.55 | 1.03 ± 0.03
343.15 K, x1 = 0.2 | 1050.63 ± 0.57 | 1.66 ± 0.05
343.15 K, x1 = 0.3 | 1061.11 ± 0.57 | 2.09 ± 0.06
343.15 K, x1 = 0.4 | 1066.32 ± 0.58 | 2.34 ± 0.07
343.15 K, x1 = 0.5 | 1068.66 ± 0.58 | 2.46 ± 0.07
343.15 K, x1 = 0.6 | 1070 ± 0.58 | 2.59 ± 0.08
343.15 K, x1 = 0.7 | 1070.82 ± 0.58 | 2.54 ± 0.08
343.15 K, x1 = 0.8 | 1071.21 ± 0.58 | 2.53 ± 0.08
343.15 K, x1 = 0.9 | 1071.43 ± 0.58 | 2.54 ± 0.08
343.15 K, x1 = 1 | 1071.55 ± 0.58 | 2.55 ± 0.08
